The supplement of paper PMC11451515

Assays:
Conditions in all cases: 48 h
NOMO1 [1] = assay: cell viability relative to DMSO control; higher = less cytotoxic
Summary of the method: (§1)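 Leukemia cells (NOMO1 or SEM, 500 cells/well; P12-Ichikawa, 1000 cells/well) were seeded in 5 μl in 1536-well plates after at least four passages of adaptation to each medium. They received library compounds in DMSO by pin dosing, 11 threefold points from 47 μM to 0.79 nM. Luminescence with CellTiter-Glo One was read after 48 h at 37°C. Viability is stated per plate relative to DMSO wells, with cell-free wells as background.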

P12-Ichikawa [2] = assay: as above
Summary of the method: as §1

SEM cells [3] = assay: as above
Summary of the method: as §1

NOMO1 [4] = assay: AUC of viability dose-response curve (% viability x log10 dose units); higher = less sensitive
Summary of the method: (§2)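 Over 48 h at 37°C, leukemia cells in 1536-well plates (500 or 1000 cells/well), adapted to each medium, received library compounds in DMSO at 11 threefold doses from 47 μM to 0.79 nM. CellTiter-Glo One luminescence, normalised per plate to DMSO and cell-free wells, was fitted by a four-parameter log-logistic function of log10 dose. The area under the curve was then integrated by trapezoidal rule, after scaling curves above full viability and removing those that failed quality control.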

P12-Ichikawa [5] = assay: as above
Summary of the method: as §2

SEM cells [6] = assay: as above
Summary of the method: as §2

CC1=C(CC(=O)O)c2cc(F)ccc2/C1=C\c1ccc([S+](C)[O-])cc1 (stereo not drawn)
cell viability [%]
Conditions | NOMO1 [1] | P12-Ichikawa [2] | SEM cells [3]
HPLM + 10% dialyzed FBS, 0.000781 µM | 121 | 121 | 111
HPLM + 10% dialyzed FBS, 0.00234 µM | 122 | 110 | 121
HPLM + 10% dialyzed FBS, 0.00702 µM | 106 | 116 | 130
HPLM + 10% dialyzed FBS, 0.0211 µM | 123 | 123 | 125
HPLM + 10% dialyzed FBS, 0.0632 µM | 125 | 124 | 127
HPLM + 10% dialyzed FBS, 0.19 µM | 107 | 117 | 125
HPLM + 10% dialyzed FBS, 0.569 µM | 140 | 116 | 126
HPLM + 10% dialyzed FBS, 1.71 µM | 99.6 | 109 | 109
HPLM + 10% dialyzed FBS, 5.12 µM | 103 | 108 | 108
HPLM + 10% dialyzed FBS, 15.4 µM | 101 | 106 | 104
HPLM + 10% dialyzed FBS, 46.1 µM | 113 | 101 | 76.7
RPMI 5 mM glucose + 10% FBS, 0.000781 µM | 125 | – | 96.6
RPMI 5 mM glucose + 10% FBS, 0.00234 µM | 118 | – | 86.7
RPMI 5 mM glucose + 10% FBS, 0.00702 µM | 105 | – | 98.5
RPMI 5 mM glucose + 10% FBS, 0.0211 µM | 132 | – | 95.8
RPMI 5 mM glucose + 10% FBS, 0.0632 µM | 115 | – | 90.3
RPMI 5 mM glucose + 10% FBS, 0.19 µM | 110 | – | 106
RPMI 5 mM glucose + 10% FBS, 0.569 µM | 112 | – | 83.6
RPMI 5 mM glucose + 10% FBS, 1.71 µM | 113 | – | 90.7
RPMI 5 mM glucose + 10% FBS, 5.12 µM | 114 | – | 79.6
RPMI 5 mM glucose + 10% FBS, 15.4 µM | 110 | – | 71.9
RPMI 5 mM glucose + 10% FBS, 46.1 µM | 112 | – | 63.4
RPMI 5 mM glucose + 10% dialyzed FBS, 0.000781 µM | 128 | 121 | 126
RPMI 5 mM glucose + 10% dialyzed FBS, 0.00234 µM | 119 | 120 | 118
RPMI 5 mM glucose + 10% dialyzed FBS, 0.00702 µM | 119 | 127 | 119
RPMI 5 mM glucose + 10% dialyzed FBS, 0.0211 µM | 123 | 125 | 118
RPMI 5 mM glucose + 10% dialyzed FBS, 0.0632 µM | 139 | 112 | 130
RPMI 5 mM glucose + 10% dialyzed FBS, 0.19 µM | 139 | 122 | 115
RPMI 5 mM glucose + 10% dialyzed FBS, 0.569 µM | 119 | 109 | 105
RPMI 5 mM glucose + 10% dialyzed FBS, 1.71 µM | 109 | 108 | 107
RPMI 5 mM glucose + 10% dialyzed FBS, 5.12 µM | 104 | 111 | 95.9
RPMI 5 mM glucose + 10% dialyzed FBS, 15.4 µM | 107 | 111 | 99.8
RPMI 5 mM glucose + 10% dialyzed FBS, 46.1 µM | 99.6 | 105 | 74.3

AUC of viability dose-response curve
Conditions | NOMO1 [4] | P12-Ichikawa [5] | SEM cells [6]
HPLM + 10% dialyzed FBS | 448 | 458 | 450
RPMI 5 mM glucose + 10% FBS | 453 | 451 | 422
RPMI 5 mM glucose + 10% dialyzed FBS | 445 | 449 | 430

NC(=O)c1cccc2nc(-c3ccc([C@H]4CCCN4)cc3F)[nH]c12
cell viability [%]
Conditions | NOMO1 [1] | P12-Ichikawa [2] | SEM cells [3]
HPLM + 10% dialyzed FBS, 0.000781 µM | 112 | 99.9 | 86.3
HPLM + 10% dialyzed FBS, 0.00234 µM | 120 | 110 | 93.6
HPLM + 10% dialyzed FBS, 0.00702 µM | 108 | 105 | 116
HPLM + 10% dialyzed FBS, 0.0211 µM | 133 | 114 | 113
HPLM + 10% dialyzed FBS, 0.0632 µM | 116 | 115 | 113
HPLM + 10% dialyzed FBS, 0.19 µM | 131 | 111 | 110
HPLM + 10% dialyzed FBS, 0.569 µM | 128 | 120 | 109
HPLM + 10% dialyzed FBS, 1.71 µM | 106 | 114 | 86.9
HPLM + 10% dialyzed FBS, 5.12 µM | 119 | 105 | 61.6
HPLM + 10% dialyzed FBS, 15.4 µM | 107 | 95.8 | 39.8
HPLM + 10% dialyzed FBS, 46.1 µM | 81.5 | 84.2 | 21.8
RPMI 5 mM glucose + 10% FBS, 0.000781 µM | 95.8 | 97 | 81.3
RPMI 5 mM glucose + 10% FBS, 0.00234 µM | 95.4 | 97.6 | 80.4
RPMI 5 mM glucose + 10% FBS, 0.00702 µM | 104 | 100 | 103
RPMI 5 mM glucose + 10% FBS, 0.0211 µM | 114 | 105 | 93.7
RPMI 5 mM glucose + 10% FBS, 0.0632 µM | 125 | 114 | 98.6
RPMI 5 mM glucose + 10% FBS, 0.19 µM | 107 | 113 | 97.9
RPMI 5 mM glucose + 10% FBS, 0.569 µM | 117 | 123 | 98.3
RPMI 5 mM glucose + 10% FBS, 1.71 µM | 107 | 112 | 70.4
RPMI 5 mM glucose + 10% FBS, 5.12 µM | 101 | 109 | 45.9
RPMI 5 mM glucose + 10% FBS, 15.4 µM | 105 | 103 | 31.8
RPMI 5 mM glucose + 10% FBS, 46.1 µM | 89.6 | 70.1 | 15.3
RPMI 5 mM glucose + 10% dialyzed FBS, 0.000781 µM | 102 | 99.5 | 86.2
RPMI 5 mM glucose + 10% dialyzed FBS, 0.00234 µM | 112 | 105 | 103
RPMI 5 mM glucose + 10% dialyzed FBS, 0.00702 µM | 117 | 110 | 111
RPMI 5 mM glucose + 10% dialyzed FBS, 0.0211 µM | 121 | 119 | 85.7
RPMI 5 mM glucose + 10% dialyzed FBS, 0.0632 µM | 118 | 109 | 87.8
RPMI 5 mM glucose + 10% dialyzed FBS, 0.19 µM | 114 | 119 | 109
RPMI 5 mM glucose + 10% dialyzed FBS, 0.569 µM | 132 | 121 | 93.1
RPMI 5 mM glucose + 10% dialyzed FBS, 1.71 µM | 130 | 116 | 64.8
RPMI 5 mM glucose + 10% dialyzed FBS, 5.12 µM | 120 | 120 | 36.3
RPMI 5 mM glucose + 10% dialyzed FBS, 15.4 µM | 109 | 107 | 29.6
RPMI 5 mM glucose + 10% dialyzed FBS, 46.1 µM | 81.3 | 65.1 | 9

AUC of viability dose-response curve
Conditions | NOMO1 [4] | P12-Ichikawa [5] | SEM cells [6]
HPLM + 10% dialyzed FBS | 464 | 463 | 398
RPMI 5 mM glucose + 10% FBS | 472 | 466 | 363
RPMI 5 mM glucose + 10% dialyzed FBS | 466 | 465 | 362

COc1ccc2[nH]c([S+]([O-])Cc3ncc(C)c(OC)c3C)nc2c1 (stereo not drawn)
cell viability [%]
Conditions | NOMO1 [1] | P12-Ichikawa [2] | SEM cells [3]
HPLM + 10% dialyzed FBS, 0.000781 µM | 89.2 | 82.5 | 83.2
HPLM + 10% dialyzed FBS, 0.00234 µM | 78.3 | 85.9 | 84.8
HPLM + 10% dialyzed FBS, 0.00702 µM | 90.9 | 92.3 | 66.8
HPLM + 10% dialyzed FBS, 0.0211 µM | 88.4 | 90 | 87.9
HPLM + 10% dialyzed FBS, 0.0632 µM | 95.9 | 91.6 | 71.9
HPLM + 10% dialyzed FBS, 0.19 µM | 83.7 | 90 | 70.5
HPLM + 10% dialyzed FBS, 0.569 µM | 85.5 | 90.4 | 86.6
HPLM + 10% dialyzed FBS, 1.71 µM | 89.9 | 92 | 42.6
HPLM + 10% dialyzed FBS, 5.12 µM | 87.3 | 95.5 | 72.8
HPLM + 10% dialyzed FBS, 15.4 µM | 86.6 | 95.4 | 74.9
HPLM + 10% dialyzed FBS, 46.1 µM | 59.8 | 78.4 | 75.7
RPMI 5 mM glucose + 10% FBS, 0.000781 µM | 74.9 | 73.7 | 83.8
RPMI 5 mM glucose + 10% FBS, 0.00234 µM | 100 | 86.8 | 91
RPMI 5 mM glucose + 10% FBS, 0.00702 µM | 78.3 | 81.3 | 83.9
RPMI 5 mM glucose + 10% FBS, 0.0211 µM | 97 | 89.6 | 101
RPMI 5 mM glucose + 10% FBS, 0.0632 µM | 80.7 | 85.1 | 77.3
RPMI 5 mM glucose + 10% FBS, 0.19 µM | 92 | 78 | 100
RPMI 5 mM glucose + 10% FBS, 0.569 µM | 90 | 85.8 | 96.8
RPMI 5 mM glucose + 10% FBS, 1.71 µM | 100 | 91.9 | 63.8
RPMI 5 mM glucose + 10% FBS, 5.12 µM | 96.3 | 85.2 | 87.5
RPMI 5 mM glucose + 10% FBS, 15.4 µM | 93.5 | 84.9 | 87.1
RPMI 5 mM glucose + 10% FBS, 46.1 µM | 89.1 | 67.4 | 69.8
RPMI 5 mM glucose + 10% dialyzed FBS, 0.000781 µM | 70.7 | 79.2 | 81.4
RPMI 5 mM glucose + 10% dialyzed FBS, 0.00234 µM | 91.7 | 79.8 | 83.5
RPMI 5 mM glucose + 10% dialyzed FBS, 0.00702 µM | 68 | 78.2 | 77
RPMI 5 mM glucose + 10% dialyzed FBS, 0.0211 µM | 98.7 | 77 | 95.8
RPMI 5 mM glucose + 10% dialyzed FBS, 0.0632 µM | 93.4 | 76.8 | 76.7
RPMI 5 mM glucose + 10% dialyzed FBS, 0.19 µM | 95.6 | 75.1 | 86.8
RPMI 5 mM glucose + 10% dialyzed FBS, 0.569 µM | 87.8 | 76.7 | 105
RPMI 5 mM glucose + 10% dialyzed FBS, 1.71 µM | 97.9 | 76.4 | 69.7
RPMI 5 mM glucose + 10% dialyzed FBS, 5.12 µM | 86 | 70.6 | 76.3
RPMI 5 mM glucose + 10% dialyzed FBS, 15.4 µM | 91.1 | 79.6 | 83.6
RPMI 5 mM glucose + 10% dialyzed FBS, 46.1 µM | 82.3 | 66.6 | 68.3

AUC of viability dose-response curve
Conditions | NOMO1 [4] | P12-Ichikawa [5] | SEM cells [6]
HPLM + 10% dialyzed FBS | 411 | 427 | 354
RPMI 5 mM glucose + 10% FBS | 434 | 398 | 411
RPMI 5 mM glucose + 10% dialyzed FBS | 418 | 363 | 392
